This note sets out measurements from US9815796B2 (Merck Sharp & Dohme Corp., priority 2013, dated 2017).

In assay [1] the target is Rhesus PDE2A3 (Macaca mulatta, UniProt B3VTJ2). Put plainly: PDE2 fluorescence polarization (IMAP FP) inhibition assay, rhesus enzyme. The format is biochemical, rhesus macaque. Summed up: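 IMAP FP (mP from parallel and perpendicular fluorescence against substrate-only control) was read ≥1 h after adding binding reagent. The preceding 60 min room-temperature reaction contained FAM-cAMP (50 nM) and cGMP (1 uM) in pH 7.2 Tris buffer with MgCl2 and DTT. Enzyme was supernatant of sonicated AD293 cells expressing rhesus PDE2A3; compounds were 3-fold titrated, DMSO 1% final.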
Chain of Rhesus PDE2A3 (B3VTJ2 1-941): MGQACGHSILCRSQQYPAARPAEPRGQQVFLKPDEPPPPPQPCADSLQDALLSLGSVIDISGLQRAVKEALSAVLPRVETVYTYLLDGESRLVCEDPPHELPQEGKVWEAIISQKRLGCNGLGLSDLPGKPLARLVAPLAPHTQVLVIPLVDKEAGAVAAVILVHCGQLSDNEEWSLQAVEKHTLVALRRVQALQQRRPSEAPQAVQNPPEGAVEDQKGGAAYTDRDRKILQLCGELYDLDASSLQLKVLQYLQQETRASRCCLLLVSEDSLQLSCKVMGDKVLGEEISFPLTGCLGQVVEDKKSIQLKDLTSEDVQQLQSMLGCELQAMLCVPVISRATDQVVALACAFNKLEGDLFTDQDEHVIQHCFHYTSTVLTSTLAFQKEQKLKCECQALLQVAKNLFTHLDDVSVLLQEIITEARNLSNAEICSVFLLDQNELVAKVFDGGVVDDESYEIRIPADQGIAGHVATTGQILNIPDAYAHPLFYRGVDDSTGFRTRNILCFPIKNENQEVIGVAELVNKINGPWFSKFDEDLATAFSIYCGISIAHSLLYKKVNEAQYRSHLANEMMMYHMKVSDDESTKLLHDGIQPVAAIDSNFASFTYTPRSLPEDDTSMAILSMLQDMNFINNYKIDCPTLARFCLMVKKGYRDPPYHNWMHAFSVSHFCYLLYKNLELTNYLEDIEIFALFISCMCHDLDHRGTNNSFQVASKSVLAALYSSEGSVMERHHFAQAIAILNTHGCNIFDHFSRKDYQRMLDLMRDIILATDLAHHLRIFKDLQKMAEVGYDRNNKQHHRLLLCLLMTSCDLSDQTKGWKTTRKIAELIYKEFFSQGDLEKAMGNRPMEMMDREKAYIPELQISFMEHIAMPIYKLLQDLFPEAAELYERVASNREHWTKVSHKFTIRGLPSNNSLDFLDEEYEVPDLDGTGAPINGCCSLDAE
For orientation: In fluorescence polarisation assays a small probe gives low polarisation when free and higher when bound to something large.

For assay [2], the target named is human PDE2A1 (Homo sapiens (Human), UniProt O00408). As to the kind of experiment: IMAP FP PDE selectivity panel, human PDE2A1. The format is biochemical. The gist of the method:
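IMAP FP format: substrate 50 nM FAM-cAMP plus 1000 nM cGMP, enzyme (insect-cell GST-tagged human PDE2A1) at ~20% conversion, 60 min reaction at room temperature. Apparent inhibition constants calculated from parallel/perpendicular fluorescence with KM 10,000 nM.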

The mark [3] stands for this setting: Rhesus PDE2, Lab A, read-out: Rhesus PDE2 Ki (nM) - Lab A.
Setting [4] is: Human PDE2, Lab A, read-out: Human PDE2 Ki (nM) - Lab A.
Setting [5] is: Rhesus PDE2, Lab B, read-out: Rhesus PDE2 Ki (nM) - Lab B.
The mark [6] stands for this setting: Human PDE2, Lab B, read-out: Human PDE2 Ki (nM) - Lab B.

Where two headings read alike, the source gives them in different places.

What is called Ki is the dissociation constant of the complex between target and ligand, obtained from inhibition or displacement.

Chain of human PDE2A1 (O00408 other isoform, or with tags, fused parts or gaps): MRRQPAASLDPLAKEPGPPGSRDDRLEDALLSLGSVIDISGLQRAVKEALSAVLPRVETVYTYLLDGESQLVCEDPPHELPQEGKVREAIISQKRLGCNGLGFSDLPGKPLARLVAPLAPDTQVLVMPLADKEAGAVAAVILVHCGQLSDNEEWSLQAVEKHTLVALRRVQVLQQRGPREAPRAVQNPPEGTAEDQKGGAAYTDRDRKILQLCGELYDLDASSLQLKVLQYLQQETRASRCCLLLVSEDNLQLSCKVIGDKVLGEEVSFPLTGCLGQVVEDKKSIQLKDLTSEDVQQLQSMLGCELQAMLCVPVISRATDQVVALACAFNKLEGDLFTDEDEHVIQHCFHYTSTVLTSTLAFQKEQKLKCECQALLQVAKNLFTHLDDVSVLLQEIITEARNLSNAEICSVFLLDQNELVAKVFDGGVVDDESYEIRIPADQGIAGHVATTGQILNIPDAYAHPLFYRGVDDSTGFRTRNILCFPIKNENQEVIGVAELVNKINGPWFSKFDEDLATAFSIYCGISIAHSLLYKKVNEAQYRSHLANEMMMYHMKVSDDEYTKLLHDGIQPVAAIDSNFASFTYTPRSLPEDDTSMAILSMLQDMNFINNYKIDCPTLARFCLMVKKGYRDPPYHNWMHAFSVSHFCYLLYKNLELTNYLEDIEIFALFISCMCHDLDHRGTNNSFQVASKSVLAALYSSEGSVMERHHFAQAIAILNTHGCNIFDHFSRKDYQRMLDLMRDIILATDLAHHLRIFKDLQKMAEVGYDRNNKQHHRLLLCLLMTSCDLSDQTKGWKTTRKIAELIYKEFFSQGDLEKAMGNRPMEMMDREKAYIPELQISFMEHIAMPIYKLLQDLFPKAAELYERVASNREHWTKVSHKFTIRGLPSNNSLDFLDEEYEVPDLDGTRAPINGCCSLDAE

In the case of `CC[C@@H](NC(=O)c1cc(=O)[nH]c(C)n1)c1ccc(OC(F)(F)F)cc1` [Example 31, 2-methyl-6-oxo-N-{(1R)-1-[4-(trifluoromethoxy)phenyl]propyl}-1,6-dihydropyrimidine-4-carboxamide], the Ki in assay [1] (setting [3]) is 28 nM; in assay [2] (setting [4]), 15 nM.

Take `O=C(NC1(c2ccc(OC(F)(F)F)cc2)CC1)c1cc(=O)[nH]c(C2CC2)n1` [Example 299, 2-cyclopropyl-6-oxo-N-{1-[4-(trifluoromethoxy)phenyl]cyclopropyl}-1,6-dihydropyrimidine-4-carboxamide]: the Ki in assay [1] (setting [3]) is 14 nM; in assay [2] (setting [4]), 9.1 nM.

Take `CC(C)(NC(=O)c1cc(=O)[nH]c(-c2ccccc2)n1)c1ccc(SC(F)(F)F)cc1` [Example 186, N-(1-methyl-1-{4-[(trifluoromethyl)sulfanyl]phenyl}ethyl)-6-oxo-2-phenyl-1,6-dihydropyrimidine-4-carboxamide]: the Ki in assay [1] (setting [3]) amounted to 60 nM; in assay [2] (setting [4]), 62 nM.

Regarding `CC(C)[C@@H](NC(=O)c1cc(=O)[nH]c(C2CC2)n1)c1ccc(S(F)(F)(F)(F)F)cc1` [Example 247, 2-cyclopropyl-N-{(1R)-2-methyl-1-[4-(pentafluoro-λ^6-sulfanyl)phenyl]propyl}-6-oxo-1,6-dihydropyrimidine-4-carboxamide], the values for the Ki in assay [1] (setting [3]), in assay [1] (setting [5]) and in assay [2] (setting [6]) were 1.7 nM, 2.5 nM and 2.7 nM, respectively.

As for `Cc1nc(C(=O)NC(C(=O)O)c2ccc(C(F)(F)F)cc2)cc(=O)[nH]1` (racemic) [Example 326, 2-(2-Methyl-6-oxo-1,6-dihydropyrimidine-4-carboxamido)-2-(4-(trifluoromethyl)phenyl)acetic acid], the Ki was 70 nM in assay [1] (setting [3]) and 67 nM in assay [2] (setting [4]).

For `Cc1nc(C(=O)N[C@@H](c2ccc(C(F)(F)F)c(F)c2)C(C)C)cc(=O)[nH]1` [Example 240, N-{(1R)-1-[3-fluoro-4-(trifluoromethyl)phenyl]-2-methylpropyl}-2-methyl-6-oxo-1,6-dihydropyrimidine-4-carboxamide], the Ki in assay [1] (setting [3]) was determined as 14 nM; in assay [2] (setting [4]), 8.8 nM.

In the case of `Cc1cc(C(F)(F)F)ccc1C(C)NC(=O)c1cc(=O)[nH]c(-c2ccccc2)n1` (stereo not shown) [Example 173, N-{1-[2-methyl-4-(trifluoromethyl)phenyl]ethyl}-6-oxo-2-phenyl-1,6-dihydropyrimidine-4-carboxamide], the results for the Ki in assay [1] (setting [3]) and in assay [2] (setting [4]) were 90 nM and 76 nM, respectively.

As to `CC[C@@H](NC(=O)c1cc(=O)[nH]c(Cc2ccc(OC)c(F)c2)n1)c1ccc(SC(F)(F)F)cc1` [Example 518, 2-(3-fluoro-4-methoxybenzyl)-6-oxo-N-[(1R)-1-{4-[(trifluoromethyl)sulfanyl]phenyl}propyl]-1,6-dihydropyrimidine-4-carboxamide], the Ki was 1.8 nM in assay [1] (setting [5]) and 1.7 nM in assay [2] (setting [6]).

Regarding `O=C(N[C@@H](c1ccc(SC(F)(F)F)c(F)c1)C1CC1)c1cc(=O)[nH]c(-c2ncccn2)n1` [Example 452, N-[(R)-cyclopropyl{3-fluoro-4-[(trifluoromethyl)sulfanyl]phenyl}meth-yl]-6-oxo-1,6-dihydro-2,2′-bipyrimidine-4-carboxamide], the Ki in assay [1] (setting [5]) was determined as 9.8 nM; in assay [2] (setting [6]), 9.3 nM.

Turning to `CC(C)(NC(=O)c1cc(=O)[nH]c(C2CC2)n1)c1ccc(C(F)(F)F)cc1` [Example 293, 2-cyclopropyl-N-{1-methyl-1-[4-(trifluoromethyl)phenyl]ethyl}-6-oxo-1,6-dihydropyrimidine-4-carboxamide], the Ki was 22 nM in assay [1] (setting [3]) and 20 nM in assay [2] (setting [4]).

For `COc1ccc(Cc2nc(C(=O)N[C@@H](c3ccc(C(F)(F)F)c(F)c3)C(C)(C)C)cc(=O)[nH]2)cc1` [Example 466, N-{(1R)-1-[3-fluoro-4-(trifluoromethyl)phenyl]-2,2-dimethylpropyl}-2-(4-methoxybenzyl)-6-oxo-1,6-dihydropyrimidine-4-carboxamide], the Ki in assay [1] (setting [5]) came out at 0.85 nM; in assay [2] (setting [6]), 0.79 nM.

In the case of `O=C(NC1(c2ccc(OC(F)(F)F)cc2)CC1)c1cc(=O)[nH]c(-c2ncccn2)n1` [Example 285, 6-oxo-N-{1-[4-(trifluoromethoxy)phenyl]cyclopropyl}-1,6-dihydro-2,2′-bipyrimidine-4-carboxamide], the Ki in assay [1] (setting [3]) and in assay [2] (setting [4]) was 46 nM in each case.

For `O=C(NC1(c2ccc(C(F)(F)F)c(F)c2)CC1)c1cc(=O)[nH]c(-c2ccccc2)n1` [Example 145, N-{1-[3-fluoro-4-(trifluoromethyl)phenyl]cyclopropyl}-6-oxo-2-phenyl-1,6-dihydropyrimidine-4-carboxamide], the Ki in assay [1] (setting [3]) came to 2.9 nM; in assay [2] (setting [4]), 2.3 nM.

As to `CC(C)(NC(=O)c1cc(=O)[nH]c(-c2ccccc2)n1)c1ccc(Br)cc1` [Example 340, N-[1-(4-bromophenyl)-1-methylethyl]-6-oxo-2-phenyl-1,6-dihydropyrimidine-4-carboxamide], the Ki in assay [1] (setting [3]) came out at 49 nM; in assay [1] (setting [5]), 109 nM; in assay [2] (setting [6]) it was 83 nM.

In the case of `Cc1nc(C(=O)N[C@@H](c2ccc(S(F)(F)(F)(F)F)cc2)C2(C)CC2)cc(=O)[nH]1` [Example 424, 2-methyl-N-{(R)-(1-methylcyclopropyl)[4-(pentafluoro-λ^6-sulfanyl)phenyl]methyl}-6-oxo-1,6-dihydropyrimidine-4-carboxamide], the Ki in assay [1] (setting [5]) is 7.2 nM; in assay [2] (setting [6]) it was 9.2 nM.

`CCc1ccc(C(C)NC(=O)c2cc(=O)[nH]c(-c3ncccn3)n2)cc1` (stereo not shown) [Example 79, N-[1-(4-ethylphenyl)ethyl]-6-oxo-1,6-dihydro-2,2′-bipyrimidine-4-carboxamide]: the Ki in assay [1] (setting [3]) was determined as 22 nM; in assay [1] (setting [5]), 25 nM; in assay [2] (setting [6]) it was 35 nM.

Regarding `Cc1nc(C(=O)NC(C)(C)c2ccc(SC(F)(F)F)c(F)c2)cc(=O)[nH]1` [Example 259, N-(1-{3-fluoro-4-[(trifluoromethyl)sulfanyl]phenyl}-1-methylethyl)-2-methyl-6-oxo-1,6-dihydropyrimidine-4-carboxamide], the Ki came out at 124 nM in assay [1] (setting [3]), 209 nM in assay [1] (setting [5]) and 179 nM in assay [2] (setting [6]).

With `C[C@@H](NC(=O)c1cc(=O)[nH]c(C2CC2)n1)c1ccc(C2CC2)cc1` [Example 256, 2-cyclopropyl-N-[(1R)-1-(4-cyclopropylphenyl)ethyl]-6-oxo-1,6-dihydropyrimidine-4-carboxamide], the Ki in assay [1] (setting [3]) is 13 nM; in assay [1] (setting [5]), 21 nM; in assay [2] (setting [4]), around 12 nM; in assay [2] (setting [6]), 20 nM.

As for `Cc1nc(C(=O)N[C@@H](c2ccc(OC(F)F)cc2)C(C)C)cc(=O)[nH]1` [Example 611, N-{(1R)-1-[4-(difluoromethoxy)phenyl]-2-methylpropyl}-2-methyl-6-oxo-1,6-dihydropyrimidine-4-carboxamide], the values for the Ki in assay [1] (setting [5]) and in assay [2] (setting [6]) were 44 nM and 37 nM, respectively.

On to `C[C@@H](NC(=O)c1cc(=O)[nH]c(C2CC2)n1)c1ccc2ccccc2c1` [Example 224, 2-cyclopropyl-N-[(1R)-1-naphthalen-2-ylethyl]-6-oxo-1,6-dihydropyrimidine-4-carboxamide], for which the Ki in assay [1] (setting [3]) is 40 nM; in assay [2] (setting [4]), 20 nM.

With `Cc1nc(C(=O)N[C@@H](c2ccc(S(F)(F)(F)(F)F)cc2)C2CC2)cc(=O)[nH]1` [Example 405, N-{(R)-cyclopropyl[4-(pentafluoro-λ^6-sulfanyl)phenyl]methyl}-2-methyl-6-oxo-1,6-dihydropyrimidine-4-carboxamide], the results for the Ki in assay [1] (setting [5]) and in assay [2] (setting [6]) were 17 nM and 15 nM, respectively.

Turning to `C[C@@H](NC(=O)c1nc[nH]c(=O)c1C1CCC1)c1ccc(C(F)(F)F)cc1` [Example 334, (R)-5-cyclobutyl-6-oxo-N-(1-(4-(trifluoromethyl)phenyl)ethyl)-1,6-dihydropyrimidine-4-carboxamide], the inhibition constant Ki in assay [1] (setting [3]) stood at 2830 nM; in assay [2] (setting [4]), 2370 nM.

`O=C(N[C@@H](c1ccc(OC(F)(F)F)c(F)c1)C1CC1)c1cc(=O)[nH]c(C2CC2)n1` [Example 212]: the Ki came to 6.1 nM in assay [1] (setting [3]) and 2.6 nM in assay [2] (setting [4]).

For `CC[C@@H](NC(=O)c1cc(=O)[nH]c(C(C)(C)c2ccc(OC)cc2)n1)c1ccc(OC(F)(F)F)cc1` [Example 505, 2-[1-(4-methoxyphenyl)-1-methylethyl]-6-oxo-N-{(1R)-1-[4-(trifluoromethoxy)phenyl]propyl}-1,6-dihydropyrimidine-4-carboxamide], the results for the Ki in assay [1] (setting [5]) and in assay [2] (setting [6]) were 84 nM and 56 nM, respectively.

As to `C[C@@H](NC(=O)c1cc(=O)[nH]c(-c2ncccn2)n1)c1ccc(S(F)(F)(F)(F)F)cc1` [Example 111, 6-oxo-N-{(1R)-1-[4-(pentafluoro-λ^6-sulfanyl)phenyl]ethyl}-1,6-dihydro-2,2′-bipyrimidine-4-carboxamide], the Ki in assay [1] (setting [3]) was 3.6 nM; in assay [1] (setting [5]) it was 3.9 nM; in assay [2] (setting [6]) it was 4.7 nM.

Regarding `COc1ccc(Cc2nc(C(=O)N[C@@H](c3ccc(SC(F)(F)F)cc3)C(C)C)cc(=O)[nH]2)cc1` [Example 469, 2-(4-methoxybenzyl)-N-[(1R)-2-methyl-1-{4-[(trifluoromethyl)sulfanyl]phenyl}propyl]-6-oxo-1,6-dihydropyrimidine-4-carboxamide], the Ki came out at 0.96 nM in assay [1] (setting [5]) and 0.91 nM in assay [2] (setting [6]).

With `Cc1nc(C(=O)NC(C)c2ccc(C(F)(F)F)cn2)cc(=O)[nH]1` (stereo not shown) [Example 17, 2-methyl-6-oxo-N-{1-[5-(trifluoromethyl)pyridin-2-yl]ethyl}-1,6-dihydropyrimidine-4-carboxamide], the values for the Ki in assay [1] (setting [3]) and in assay [2] (setting [4]) were 1160 nM and 917 nM, respectively.
